{"source": "patent US8129557B2", "about": "“Phosphonic acid diester derivative and method for producing thereof” (priority 2005, dated 2012)", "key": {"human GGT": {"biological_target": "T1, human GGT (Homo sapiens, UniProt P19440)", "T1 construct": "purchased Asahi Kasei Co., Ltd. HC-GTP (lot 603AA)", "T1 sequence (P19440 1-380 limits assumed)": "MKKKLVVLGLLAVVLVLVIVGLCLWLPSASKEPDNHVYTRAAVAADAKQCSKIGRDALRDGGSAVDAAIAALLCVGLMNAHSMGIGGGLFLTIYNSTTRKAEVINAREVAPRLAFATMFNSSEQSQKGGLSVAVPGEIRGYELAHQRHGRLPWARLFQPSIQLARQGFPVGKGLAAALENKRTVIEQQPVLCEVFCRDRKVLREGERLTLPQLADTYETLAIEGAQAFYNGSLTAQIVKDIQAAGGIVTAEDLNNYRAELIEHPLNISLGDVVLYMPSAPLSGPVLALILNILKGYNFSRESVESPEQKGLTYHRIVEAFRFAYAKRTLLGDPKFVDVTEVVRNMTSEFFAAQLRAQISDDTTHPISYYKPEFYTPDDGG", "T1 sequence (P19440 381-569 limits assumed)": "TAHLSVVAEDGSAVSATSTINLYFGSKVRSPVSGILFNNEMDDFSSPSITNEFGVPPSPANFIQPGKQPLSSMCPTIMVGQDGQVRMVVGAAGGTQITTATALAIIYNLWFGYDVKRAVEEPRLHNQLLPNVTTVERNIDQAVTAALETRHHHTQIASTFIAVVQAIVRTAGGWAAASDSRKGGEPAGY", "assay": "Second-order rate constant kon of human GGT inactivation (continuous or discontinuous assay)", "type": "biochemical", "from_the_text": "(§1) Purified enzyme of E-coli GGT and crude enzyme of human GGT were employed as GGT samples for an inhibition experiment. The enzyme whose physicochemical properties are described in the Document (Hideyuki Suzuki, Hidehiko Kumagai, Tatsurokukro Tochikura “gamma-Glutamyltranspeptidase from Escherichia coli K-12: Purification and Properties” Journal of Bacteriology, December 1986, Vol. 168, No. 3, p. 1325-1331) was used as a purified enzyme of E-coli GGT. Enzyme [HC-GTP (product number), 603AA (lot number)] manufactured by Asahi Kasei Co., Ltd. was used as a crude enzyme of human GGT. The crude enzyme of human GGT contained a large amount of bovine serum albumin (BSA) to stabilize the enzyme, and the GGT concentration was 1% or lower.\nIn the hydrolytic assay of human GGT, the measurement was carried out in the same manner as that in the hydrolytic assay of E-coli GGT, except that the substrate concentration was changed to […] and therefore, the explanation of the common portions was omitted.\n(§2) Next, a second-order rate constant for enzyme inactivation kon was measured by either a continuous assay or a discontinuous assay. Both of the continuous and discontinuous assay for measuring inhibitory activity to GGT were carried out under a pseudo-first-order reaction condition.\n(§3) In the continuous assay, while the temperature was kept at 25° C., the 100 mM succinic acid-sodium hydroxide buffer solutions (pH 5.5) containing an inhibitor in various concentrations and the substrate were preincubated for equilibrium. Herein, 0.2 μM of the substrate was used for the case of E-coli GGT and 0.4 μM of the substrate was used for the case of human GGT. Thereafter, the enzyme solution of the E-coli GGT was added in a manner that the final concentration became 0.04 nM and also the human GGT crude enzyme solution was added in a manner that the final concentration became 5 μg/mL. Accordingly, the reaction was started and the release of AMC (increase of the fluorescence intensity) was continuously traced for 10 minutes.\n(§4) The fluorescence intensity data obtained from the respective curves was applied to the following pseudo-first-order rate equation (2) and the observed pseudo-first-order rate constant for enzyme inactivation (kobs) was calculated by nonlinear regression analysis [Stein, R. L. et al. Biochemistry 26, 2682-2689 (1987)].\n(§5) [Equation 2] [P]=[P]∞[1−exp(−kobst)] (2)\n(§6) When the kobs was plotted against to the inhibitor concentration ([I]), a linear relation was obtained until the maximum extent of the experimentally possible inhibitor concentration. Therefore, the second-order rate constant for enzyme inactivation kon was calculated using the following equation (3) deduced from the kinetic mechanism.\n(§7) [drawing 37] [Equation 3] kobs=kon[I]/(1+[S]/Km) (3)\n(§8) Herein, S denotes 7-(γ-L-glutamylamino)-4-methylcoumarin. The substrate concentration [S] for E-coli GGT is 0.2 μM and the Km value is 0.2 μM. […] The kinetic data was obtained by nonlinear regression analysis using Kaleida graph, a program produced by Synergy Software.\nFurther, in the discontinuous assay, an inhibitor in various concentrations was dissolved in 100 mM succinic acid-sodium hydroxide buffer solution (pH 5.5) and the enzyme solution was added to the resulting buffer solutions. Herein, in the case of E-coli GGT, the enzyme solution was added in a manner that the final concentration became 0.4 nM and also the human GGT crude enzyme solution was added in a manner that the final concentration became 0.5 mg/mL. Accordingly, the reaction of the inhibitor and each GGT was conducted at 25° C. An aliquot (10 μL) of each of the reaction solutions were sampled at every specified time to measure the remaining enzyme activity by the above-mentioned enzyme activation method. The remaining enzyme activity at every time was analyzed by nonlinear regression using the pseudo-first-order rate equation (4) of enzyme inactivation to calculate the value of kobs.\n[Equation 4] αt/α0=exp(−kobst) (4) […]"}, "E-coli GGT": {"biological_target": "T2, E-coli GGT (Escherichia coli, UniProt P18956)", "T2 construct": "was used as a purified enzyme of E-coli GGT; made in house", "T2 sequence (P18956 26-390 limits assumed)": "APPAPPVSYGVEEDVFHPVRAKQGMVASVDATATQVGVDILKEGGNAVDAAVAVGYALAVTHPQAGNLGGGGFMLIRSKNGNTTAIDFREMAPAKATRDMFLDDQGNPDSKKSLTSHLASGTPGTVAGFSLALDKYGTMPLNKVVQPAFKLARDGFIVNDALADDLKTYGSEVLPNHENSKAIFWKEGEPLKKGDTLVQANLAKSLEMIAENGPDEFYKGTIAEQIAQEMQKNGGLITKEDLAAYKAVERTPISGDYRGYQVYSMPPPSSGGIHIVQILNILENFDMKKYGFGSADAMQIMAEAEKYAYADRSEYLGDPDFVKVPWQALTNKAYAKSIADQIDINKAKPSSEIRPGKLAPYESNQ", "T2 sequence (P18956 391-580 limits assumed)": "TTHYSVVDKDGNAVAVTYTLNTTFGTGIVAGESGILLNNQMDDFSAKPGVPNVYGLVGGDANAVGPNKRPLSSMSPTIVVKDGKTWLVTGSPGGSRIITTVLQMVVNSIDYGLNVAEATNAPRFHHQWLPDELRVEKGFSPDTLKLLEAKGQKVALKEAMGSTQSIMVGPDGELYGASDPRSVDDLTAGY", "assay": "Second-order rate constant kon of E-coli GGT inactivation (continuous or discontinuous assay)", "type": "biochemical, Escherichia coli K-12", "conditions": "second-order rate constant for enzyme inactivation; pH 5.5, 25° C.", "from_the_text": "as §1\nIn the hydrolytic assay of E. coli GGT, 10 μL of a […] enzyme solution was added to a 100 mM succinic acid-sodium hydroxide buffer solution (pH 5.5) in a total volume of 1 mL containing 100 μL of 2 μM substrate aqueous solution. The product, 7-amino-4-methylcoumarin (AMC), released along with the enzyme reaction was traced continuously at 25° C. using a fluorospectrophotometer F-2000 manufactured by Hitachi Ltd. (excitation wavelength: 350 nm, emission wavelength: 440 nm). The AMC concentration was separately measured by forming a calibration curve showing the relation of the fluorescence intensity (F) and the concentration (C) using standard solutions and was calculated from the relational expression (1) of the fluorescence intensity alteration (ΔF) and concentration alteration (ΔC).\nas §2, §3, §4, §5, §6, §7, §8\nFurther, in the discontinuous assay, an inhibitor in various concentrations was dissolved in 100 mM succinic acid-sodium hydroxide buffer solution (pH 5.5) and the enzyme solution was added to the resulting buffer solutions. […]"}, "[1]": {"assay": "Chemical stability: hydrolysis ratio after storage in water at room temperature", "type": "physicochemical", "conditions": "stored in water at room temperature for 12 hours", "experimental": "Herein, the hydrolysis ratios of the reactive compounds of Examples 1 to 11 were measured after the respective compounds were stored in water at room temperature. In this connection, the compounds other than the compound of Example 10 were stored in water for 12 hours and the compound of Example 10 was stored in water for 112 hours."}, "[2]": {"system": "glutamine-dependent asparagine synthetase", "assay": "Inhibition of glutamine-dependent asparagine synthetase", "type": "biochemical", "conditions": "10 mM compound, incubated for 2 hours", "from_the_text": "Therefore, the phosphonic acid diester derivative (1) specifically reacts on GGT."}}, "data": [{"smiles": "COP(=O)(CCC(N)C(=O)O)Oc1cccc(CC(=O)O)c1", "note": "(stereo not drawn) [Example 11, 2-amino-4-{[3-(carboxymethyl)phenyl](methyl)phosphono}butanoic Acid]", "values": [{"measurement": "plot of log kon (human GGT) against pKa of aryl group, FIG. 4", "setting": "human GGT; position relative to the straight line", "result": "deviate upward"}, {"measurement": "kon of human GGT inactivation relative to the compound of Example 12", "setting": "human GGT; ratio of kon 51 to kon 0.33", "result": "about 155 times"}, {"measurement": "kon Human GGT", "setting": "human GGT; second-order rate constant for enzyme inactivation, pH 5.5, 25° C.", "result": 51, "unit": "M^−1S^−1"}, {"measurement": "kon E-coli GGT", "setting": "E-coli GGT", "result": 150, "unit": "M^−1S^−1"}, {"measurement": "Hydrolysis ratio (%)", "setting": "[1]", "result": 0, "unit": "%"}, {"measurement": "inhibition of the function of glutamine-dependent asparagine synthetase", "setting": "[2]", "result": "did not inhibit"}]}]}
